Measured values taken from article PMC10141580, “Cyclic Dichalcogenides Extend the Reach of Bioreductive Prodrugs to Harness Thiol/Disulfide Oxidoreductases: Applications to seco-Duocarmycins Targeting the Thioredoxin System” (ACS Central Science, 2023).
Several values for one entry are separate records, joined by “and”; a condition that tells them apart may be missing. Equal values may be shown once. Read-outs that look alike come from different tables or passages of the source.

Tested on: panel of 140 standard cancer cell lines
Assay: ProliFiler-140 cancer cell line screen (CellTiterGlo, 72 h)
Format: cell-based
Experimental: Incubations were performed for 72 h before automated viability readout with CellTiterGlo (Figure 8).
End of Figure S11 (part 5 of 5): ProliFiler-140 cancer cell line screening for cytotoxicity of the prodrugs.
8-data-point dose response curves from CellTiter-Glo® viability readout.
ProliFiler-140 cell line panel part V

In the case of COc1cc2cc(C(=O)N3C[C@@H](CCl)c4c3cc(OC(=O)N3CCN(C(=O)CCC(=O)N5CCN(C)CC5)[C@H]5CSSC[C@H]53)c3ccccc43)[nH]c2c(OC)c1OC [P-SS66C-CBI-TMI], the “Reductive Activation Index” value (786-O (Kidney)) is reported as 4.12, the “Reductive Activation Index” value (A172 (Brain)) is reported as 5.35 and the “Reductive Activation Index” value (A375 (Skin)) is reported as 3.01. The “Reductive Activation Index” value (A427 (Lung)) was 19 and 18.60, the “Reductive Activation Index” value (A498 (Kidney)) was 3.19 and the “Reductive Activation Index” value (A549 (Lung)) was 25. For the same molecule, the “Reductive Activation Index” value (AsPC-1 (Pancreas)) was 8.2, the “Reductive Activation Index” value (BEN (Lung)) was 27 and the “Reductive Activation Index” value (BT-20 (Breast)) was 9.1. For the same molecule, the IC50 (COV434, read-out: IC50 [M] (ProliFiler-140), COV434 (Ovary)) was 1.5e-08 M, the “Reductive Activation Index” value (Caki-1 (Kidney)) was 5.18 and the “Reductive Activation Index” value (Caki-2 (Kidney)) was 5.62 and 5.6. The “Reductive Activation Index” value (Calu-6 (Lung)) was 5.77, the “Reductive Activation Index” value (Colo 205 (Colon)) was 8.8 and the “Reductive Activation Index” value (DLD-1 (Colon)) was 6.33 and 6.3. For the same molecule, the “Reductive Activation Index” value (EFM-19 (Breast)) was 3.1 and 3.08, the “Reductive Activation Index” value (EFM-192A (Breast)) was 6.6 and the IC50 (EFM-192A, read-out: IC50 [M] (ProliFiler-140), EFM-192A (Breast)) was 2.7e-07 M. For the same molecule, the “Reductive Activation Index” value (EFO-27 (Ovary)) was 15, the “Reductive Activation Index” value (H4 (Brain)) was 5.82 and the “Reductive Activation Index” value (H460 (Lung)) was 9.3. The “Reductive Activation Index” value (HCC202 (Breast)) was 9.8, the IC50 (HCC202, read-out: IC50 [M] (ProliFiler-140), HCC202 (Breast)) was 9.1e-08 M and the “Reductive Activation Index” value (HCC827 (Lung)) was 15. The “Reductive Activation Index” value (HCC 1569 (Breast)) was 28, the “Reductive Activation Index” value (HCT-15 (Colon)) was 3.89 and the “Reductive Activation Index” value (HEC-1-A (Endometrium)) was 18. For the same molecule, the “Reductive Activation Index” value (HEC-1-B (Endometrium)) was 8.3, the “Reductive Activation Index” value (HT-29 (Colon)) was 9.5 and the “Reductive Activation Index” value (HeLa (Ovary)) was 23.88. For the same molecule, the “Reductive Activation Index” value (Hep3B2.1-7 (Liver)) was 7.8, the IC50 (Homo sapiens, 786-0, read-out: IC50 [M] (ProliFiler-140), 786-O (Kidney)) was 2.86e-08 M and the IC50 (Homo sapiens, A 172, read-out: IC50 [M] (ProliFiler-140), A172 (Brain)) was 1.07e-07 M. The IC50 (Homo sapiens, A498, read-out: IC50 [M] (ProliFiler-140), A498 (Kidney)) was 9.41e-08 M, the IC50 (Homo sapiens, A549, read-out: IC50 [M] (ProliFiler-140), A549 (Lung)) was 3e-08 M and the IC50 (Homo sapiens, A2058, read-out: IC50 [M] (ProliFiler-140), A2058 (Skin)) was 1.1e-08 M. It also gave an IC50 (Homo sapiens, A2780, read-out: IC50 [M] (ProliFiler-140), A2780 (Ovary)) of 8.1e-09 M, an IC50 (Homo sapiens, A-375, read-out: IC50 [M] (ProliFiler-140), A375 (Skin)) of 5.45e-08 M and an IC50 (Homo sapiens, A-427, read-out: IC50 [M] (ProliFiler-140), A427 (Lung)) of 4.4e-08 M. For the same molecule, the IC50 (Homo sapiens, A-431, read-out: IC50 [M] (ProliFiler-140), A431 (Skin)) was 2.02e-08 M, the IC50 (Homo sapiens, ASPC1, read-out: IC50 [M] (ProliFiler-140), AsPC-1 (Pancreas)) was 2.6e-07 M and the IC50 (Homo sapiens, BT-20, read-out: IC50 [M] (ProliFiler-140), BT-20 (Breast)) was 1.2e-07 M. For the same molecule, the IC50 (Homo sapiens, BXPC-3, read-out: IC50 [M] (ProliFiler-140), BxPC-3 (Pancreas)) was 4.64e-08 M, the IC50 (Homo sapiens, CAKI-1, Caki-1) was 6.3e-08 M and the IC50 (Homo sapiens, CAKI-1, read-out: IC50 [M] (ProliFiler-140), Caki-1 (Kidney)) was 6.34e-08 M. It also gave an IC50 (Homo sapiens, CAKI-2, read-out: IC50 [M] (ProliFiler-140), Caki-2 (Kidney)) of 2.69e-07 M, an IC50 (Homo sapiens, COLO 205, Colo 205) of 8.6e-08 M and an IC50 (Homo sapiens, COLO 205, read-out: IC50 [M] (ProliFiler-140), Colo 205 (Colon)) of 8.6e-08 M. For the same molecule, the IC50 (Homo sapiens, COR-L279, read-out: IC50 [M] (ProliFiler-140), COR-L279 (Lung)) was 7.2e-09 M, the IC50 (Homo sapiens, Calu-6, read-out: IC50 [M] (ProliFiler-140), Calu-6 (Lung)) was 5.93e-08 M and the IC50 (Homo sapiens, DLD-1, read-out: IC50 [M] (ProliFiler-140), DLD-1 (Colon)) was 1.25e-07 M. It also gave an IC50 (Homo sapiens, DU-145, read-out: IC50 [M] (ProliFiler-140), DU-145 (Prostate)) of 1.6e-08 M, an IC50 (Homo sapiens, DV-90, read-out: IC50 [M] (ProliFiler-140), DV90 (Lung)) of 1.2e-08 M and an IC50 (Homo sapiens, Detroit 562, read-out: IC50 [M] (ProliFiler-140), Detroit562 (Head/Neck)) of 1.88e-08 M. It also gave an IC50 (Homo sapiens, EFM-19, read-out: IC50 [M] (ProliFiler-140), EFM-19 (Breast)) of 3.1e-07 M, an IC50 (Homo sapiens, EFO-27, read-out: IC50 [M] (ProliFiler-140), EFO-27 (Ovary)) of 6.2e-08 M and an IC50 (Homo sapiens, EPLC-272H, read-out: IC50 [M] (ProliFiler-140), EPLC-272H (Lung)) of 4.57e-08 M. For the same molecule, the IC50 (Homo sapiens, HCC38, read-out: IC50 [M] (ProliFiler-140), HCC38 (Breast)) was 1.35e-08 M, the IC50 (Homo sapiens, HCC827, read-out: IC50 [M] (ProliFiler-140), HCC827 (Lung)) was 9.1e-08 M and the IC50 (Homo sapiens, HCC1569, read-out: IC50 [M] (ProliFiler-140), HCC 1569 (Breast)) was 3.6e-08 M. For the same molecule, the IC50 (Homo sapiens, HCT-15, HCT-15) was 1.4e-07 M, the IC50 (Homo sapiens, HCT-15, read-out: IC50 [M] (ProliFiler-140), HCT-15 (Colon)) was 1.4e-07 M and the IC50 (Homo sapiens, HCT-116, HCT116) was 3.2e-08 M. For the same molecule, the IC50 (Homo sapiens, HCT-116, read-out: IC50 [M] (ProliFiler-140), HCT116 (Colon)) was 3.23e-08 M, the IC50 (Homo sapiens, HEC-1-A, read-out: IC50 [M] (ProliFiler-140), HEC-1-A (Endometrium)) was 1e-07 M and the IC50 (Homo sapiens, HEC-1B, read-out: IC50 [M] (ProliFiler-140), HEC-1-B (Endometrium)) was 4e-07 M. For the same molecule, the IC50 (Homo sapiens, HL-60, HL-60) was 1.5e-08 M, the IC50 (Homo sapiens, HL-60, read-out: IC50 [M] (ProliFiler-140), HL-60 (Blood)) was 1.5e-08 M and the IC50 (Homo sapiens, HT-29, HT-29) was 1.1e-07 M. It also gave an IC50 (Homo sapiens, HT-29, read-out: IC50 [M] (ProliFiler-140), HT-29 (Colon)) of 1.1e-07 M, an IC50 (Homo sapiens, HT-1080, read-out: IC50 [M] (ProliFiler-140), HT-1080 (Fibrosarcoma)) of 2.13e-08 M and an IC50 (Homo sapiens, HeLa, read-out: IC50 [M] (ProliFiler-140), HeLa (Ovary)) of 9.89e-09 M. The IC50 (Homo sapiens, Hs746T, read-out: IC50 [M] (ProliFiler-140), Hs 746T (Stomach)) was 7.5e-08 M, the IC50 (Homo sapiens, HuTu80, read-out: IC50 [M] (ProliFiler-140), Hutu 80 (Duodenum)) was 9.56e-09 M and the IC50 (Homo sapiens, Huh-7, read-out: IC50 [M] (ProliFiler-140), HuH7 (Liver)) was 1e-07 M. For the same molecule, the IC50 (Homo sapiens, Ishikawa, read-out: IC50 [M] (ProliFiler-140), Ishikawa (Endometrium)) was 3.8e-09 M, the IC50 (Homo sapiens, JIMT-1, read-out: IC50 [M] (ProliFiler-140), JIMT-1 (Breast)) was 1e-07 M and the IC50 (Homo sapiens, JVM-3, read-out: IC50 [M] (ProliFiler-140), JVM-3 (Blood)) was 3.36e-09 M. It also gave an IC50 (Homo sapiens, Jurkat, read-out: IC50 [M] (ProliFiler-140), Jurkat (Blood)) of 6.17e-09 M, an IC50 (Homo sapiens, K562, read-out: IC50 [M] (ProliFiler-140), K562 (Blood)) of 1.3e-07 M and an IC50 (Homo sapiens, KARPAS-299, KARPAS 299 (Blood), read-out: IC50 [M] (ProliFiler-140)) of 1.08e-07 M. For the same molecule, the IC50 (Homo sapiens, KATO III, read-out: IC50 [M] (ProliFiler-140), Kato III (Stomach)) was 2.2e-07 M.
